The text below walks through data of patent publication US9771372B2, “Compounds useful as S100-inhibitors” (Active Biotech AB, priority 2014, dated 2017).

For this experiment, the target named is T1, interaction between biotinylated human S100A9 and human RAGE-Fc (Homo sapiens, UniProt P06702).
T1 construct: made in house; host or cells: E. coli BL21(DE3)/pET1120 (pLR757)
T1 sequence (P06702 1-114): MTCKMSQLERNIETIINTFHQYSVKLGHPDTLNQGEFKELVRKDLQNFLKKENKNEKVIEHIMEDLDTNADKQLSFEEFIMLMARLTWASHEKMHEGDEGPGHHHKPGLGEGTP
Kind of experiment: AlphaScreen inhibition assay, Biot-hS100A9:hRAGE-Fc (S100A9-RAGE inhibition assay). The class given is binding. To be noted: biot-hS100A9 and rhRAGE-Fc, Ca2+ and Zn2+ in buffer. The method in brief: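 Biotinylated human S100A9, in HBS-P with CaCl2 and ZnCl2, preincubated 1 h at room temperature in the dark with compound (final DMSO ≤1.25%), then combined with rhRAGE-Fc on protein A Acceptor beads plus streptavidin Donor beads (20 μg/mL each). Protein levels batch-dependent; percent inhibition from AlphaScreen signal vs DMSO-only control.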
`Cc1cccc2c1nc1n2C(NC(=O)CCC2CCCC2)(C(F)(F)F)C(=O)N1` (centres unmarked) [Example 81, 3-cyclopentyl-N-[9-methyl-4-oxo-3-(trifluoromethyl)-2,5,7-triazatricyclo[6.4.0.0^2,6]dodeca-1(12),6,8,10-tetraen-3-yl]propanamide]: the half-inhibitory concentration (IC50) (usually the concentration that gives 50% inhibition) was found to be 5600 nM.
As for `COc1ccc(-c2cccc3c2nc2n3C(NC(=O)CCC3CCCC3)(C(F)(F)F)C(=O)N2)cc1` (single isomer, unassigned) [Example 230b, 3-cyclopentyl-N-[9-(4-methoxyphenyl)-4-oxo-3-(trifluoromethyl)-2,5,7-triazatricyclo[6.4.0.0^2,6]dodeca-1(12),6,8,10-tetraen-3-yl]propanamide], the 50% inhibitory concentration (IC50) amounted to 2880 nM.
As to `CCCC(=O)NC1(C(F)(F)F)C(=O)Nc2nc3c(-c4ccc(OC)cc4)cccc3n21` (centres unmarked) [Example 234, N-[9-(4-methoxyphenyl)-4-oxo-3-(trifluoromethyl)-2,5,7-triazatricyclo[6.4.0.0^2,6]dodeca-1(12),6,8,10-tetraen-3-yl]butanamide], the IC50 came to 920 nM.
Consider `O=C(CCC1CCCC1)NC1(C(F)(F)F)C(=O)Nc2nc3c(OC(F)(F)F)cccc3n21` (centres unmarked) [Example 164, 3-cyclopentyl-N-[4-oxo-9-(trifluoromethoxy)-3-(trifluoromethyl)-2,5,7-triazatricyclo[6.4.0.0^2,6]dodeca-1(12),6,8,10-tetraen-3-yl]propanamide], for which the half-inhibitory concentration (IC50) is 1470 nM.
For `O=C(NC1(C(F)(F)F)C(=O)Nc2nc3cc(Cl)c(Cl)cc3n21)c1cccc(Cl)n1` (centres unmarked) [Example 62, 6-chloro-N-[10,11-dichloro-4-oxo-3-(trifluoromethyl)-2,5,7-triazatricyclo[6.4.0.0^2,6]-dodeca-1(12),6,8,10-tetraen-3-yl]pyridine-2-carboxamide], the concentration for half-maximal inhibition (IC50) was found to be 1100 nM.
As to `O=C(CCC1CCCC1)NC1(C(F)(F)F)C(=O)Nc2nc3c(C(=O)O)cc(Cl)cc3n21` (centres unmarked) [Example 233, 11-chloro-3-(3-cyclopentylpropanamido)-4-oxo-3-(trifluoromethyl)-2,5,7-triazatricyclo[6.4.0.0^2,6]dodeca-1(12),6,8,10-tetraene-9-carboxylic acid], the IC50 is 490 nM.
With `O=C(NC1(C(F)(F)F)C(=O)Nc2nc3ccccc3n21)c1cc(Cl)cc(Cl)c1` (centres unmarked) [Example 12, 3,5-dichloro-N-[4-oxo-3-(trifluoromethyl)-2,5,7-triazatricyclo[6.4.0.0^2,6]dodeca-1(12),6,8,10-tetraen-3-yl]benzamide], the IC50 came to 3000 nM.
Next, `O=C(NC1(C(F)(F)F)C(=O)Nc2nc3cc(Cl)c(Cl)cc3n21)C1CC2(CNC2)C1` (centres unmarked) [Example 40, N-[10,11-dichloro-4-oxo-3-(trifluoromethyl)-2,5,7-triazatricyclo[6.4.0.0^2,6]dodeca-1(12),6,8,10-tetraen-3-yl]-2-azaspiro[3.3]heptane-6-carboxamide]: 3300 nM; `O=C(NC1(C(F)(F)F)C(=O)Nc2nc3cc(Cl)c(Cl)cc3n21)C1(F)CNC1` (centres unmarked) [Example 103, N-[10,11-dichloro-4-oxo-3-(trifluoromethyl)-2,5,7-triazatricyclo[6.4.0.0^2,6]dodeca-1(8),6,9,11-tetraen-3-yl]-3-fluoroazetidine-3-carboxamide]: 3970 nM; `O=C(CCC1CCCC1)NC1(C(F)(F)F)C(=O)Nc2nc3c(C(=O)O)cccc3n21` (centres unmarked) [Example 160, 3-(3-cyclopentylpropanamido)-4-oxo-3-(trifluoromethyl)-2,5,7-triazatricyclo[6.4.0.0^2,6]dodeca-1(12),6,8,10-tetraene-9-carboxylic acid]: 740 nM.
Next, `CCNc1cccc(C(=O)NC2(C(F)(F)F)C(=O)Nc3nc4cc(Cl)c(Cl)cc4n32)n1` (centres unmarked) [Example 70, N-[10,11-dichloro-4-oxo-3-(trifluoromethyl)-2,5,7-triazatricyclo[6.4.0.0^2,6]dodeca-1(12),6,8,10-tetraen-3-yl]-6-(ethylamino)pyridine-2-carboxamide]: 1300 nM; `O=C(CCC1CCCC1)NC1(C(F)(F)F)C(=O)Nc2nc3c(C(=O)O)cccc3n21` (single isomer, unassigned) [Example 231b, 3-(3-cyclopentylpropanamido)-4-oxo-3-(trifluoromethyl)-2,5,7-triazatricyclo[6.4.0.0^2,6]dodeca-1(12),6,8,10-tetraene-9-carboxylic acid]: 840 nM; `Cc1cc2nc3n(c2cc1C)C(NC(=O)[C@@H](C)Oc1cccc(Cl)c1)(C(F)(F)F)C(=O)N3` (single isomer, unassigned) [Example 212b]: 4580 nM.
As to `COc1ccc(-c2cccc3c2nc2n3C(NC(=O)CCC3CCCC3)(C(F)(F)F)C(=O)N2)cn1` (centres unmarked) [Example 188, 3-cyclopentyl-N-[9-(6-methoxypyridin-3-yl)-4-oxo-3-(trifluoromethyl)-2,5,7-triazatricyclo[6.4.0.0^2,6]dodeca-1(12),6,8,10-tetraen-3-yl]propanamide], the concentration for half-maximal inhibition (IC50) was 940 nM.
For the compound `CSc1ccc(-c2cccc3c2nc2n3C(NC(=O)CCC3CCCC3)(C(F)(F)F)C(=O)N2)cc1` (centres unmarked) [Example 232, 3-cyclopentyl-N-{9-[4-(methylsulfanyl)phenyl]-4-oxo-3-(trifluoromethyl)-2,5,7-triazatricyclo[6.4.0.0^2,6]dodeca-1(12),6,8,10-tetraen-3-yl}propanamide], the IC50 was determined as 540 nM.
Take `Cc1cc2nc3n(c2cc1C)C(NC(=O)[C@@H](C)Oc1cccc(Cl)c1)(C(F)(F)F)C(=O)N3` (single isomer, unassigned) [Example 212a]: the half-maximal inhibitory concentration (IC50) was determined as 610 nM.
On to `N#Cc1cccc(C(=O)NC2(C(F)(F)F)C(=O)Nc3nc4cc(Cl)c(Cl)cc4n32)c1` (centres unmarked) [Example 100, 3-cyano-N-[10,11-dichloro-4-oxo-3-(trifluoromethyl)-2,5,7-triazatricyclo[6.4.0.0^2,6]dodeca-1(8),6,9,11-tetraen-3-yl]benzamide], for which the IC50 is 2020 nM.
